Source: patent EP2785358B1, “INSULIN-MIMETICS AS THERAPEUTIC ADJUNCTS FOR BONE REGENERATION” (priority 2011, dated 2013)
Several values for one entry are separate records, joined by “and”; a condition that tells them apart may be missing. Equal values may be shown once. Read-outs that look alike come from different tables or passages of the source. Marks after values point to notes of the source that are not given here.

Key:
femur fractures [1] = details: no carrier
Experimental: Under the same anesthesia as described above, the rats were positioned prone and lateral and anteroposterior (AP) radiographs of their femurs were obtained. […] Exposures were for 30 seconds at 55 kVp. Magnified radiographs were obtained of resected femurs. Qualitative analysis was performed on all radiographic sample at four weeks post-fracture. […] Treatment group averages were computed to estimate healing at 4 weeks post-fracture.

femur fractures [2] = details: zinc chloride 3.0 mg/kg
Excerpt: The fractured femora were resected at seven days post-fracture, decalcified, dehydrated, embedded in paraffin, and sectioned using standard histological techniques. Sections were stained with Masson's Trichrome (Accustain™ Trichrome Staining kit, Sigma Diagnostics, St. Louis, MO) for histological observation using an Olympus BH2-RFCA microscope (Olympus Optical Co., Ltd., Shinjuku-ku, Tokyo, Japan). Digital images were collected using a Nikon DXM1200F digital camera (Nikon, Tokyo, Japan). Cartilage, new bone, and total callus area were measured from the digital images using Image-Pro Plus software (version 5, Media Cybernetics, Inc., Silver Spring, MD). Total cartilage and new bone area were normalized to total callus area and expressed as the percent area. Two independent reviewers were used to minimize inconsistencies.
This includes dehydration, soaking in Xylenes, and finally pre-embedding in a layer of Polymethylmethacrylate (PMMA). After embedding in pure PMMA and allowed to solidify in a hot water bath, slides were sectioned from the PMMA blocks, polished, and stained with a combination of Stevenel's blue and Van Gieson picro-fuchsin (SVG). Histological images of fracture calluses were obtained using an Olympus SZX12 upright microscope (Olympus Optical Co, LTD, Japan) connected via a CCD camera (Optronics, Goleta, California) to a personal computer and analyzed with the Bioquant software package (Biometrics, Inc, Nashville, TN). Parameters that were compared include a) callus area, b) percent calcified tissue area, and c) percent cartilage area. Limitations of this procedure include production of slides with high thicknesses, due to the difficulties associated with sectioning PMMA. This limits the number of possible sections that may be cut for staining in addition to analysis of cellular morphology, due to overlapping layers of cells.

[3] = rat, in vivo
Experimental: Doses of ZnCl2 were not based on each animal's body weight, but on a lower theoretically tolerable dose for a 290-gram BB Wistar rat, which would not elicit heavy metal poisoning or behavioral changes. […] A 0.1 ml volume of the ZnCl2 solution was administered locally via a single injection into the marrow space for each dose examined.
However, animals amongst treatment groups were age and sex matched for each experiment.

femur fractures [4] = tested on: femur fractures; parameters: Percent Effective Shear Modulus / Percent Effective Shear Stress: scale not given: direction of the effect not stated beside the values; details: for Effective Shear Modulus / Effective Shear Stress / Maximum Torque to Failure / Maximum Torsional Rigidity / Percent Effective Shear Modulus / Percent Effective Shear Stress / Percent Maximum Torque to Failure / Percent maximum torsional rigidity: no carrier, 4 weeks post-fracture; for effective shear stress, times higher than control: four weeks post-fracture
Experimental: Zinc Chloride [(ZnCl2), Sigma Aldrich, St. Louis, MO] mixed with a buffer was injected into the intramedullary canal prior to fracture. The buffer consisted of sodium acetate, sodium chloride methyl hydroxybenzoate, and zinc chloride. Doses of 1.0 mg/kg and 3.0 mg/kg zinc chloride were tested and administered at a volume of 0.1mL.
Fractured and contralateral femora were resected at three and four weeks post-fracture. Femora were cleaned of soft tissue and the intramedullary rod was removed. Samples were wrapped in saline (0.9% NaCl) soaked gauze and stored at -20 °C. Prior to testing, all femora were removed from the freezer and allowed to thaw to room temperature for three to four hours. The proximal and distal ends of the fractured and contralateral femora were embedded in ¾ inch square nuts with Field's Metal, leaving an approximate gauge length of 18 mm (Figure 2). After measuring callus, gauge length and femur dimensions, torsional testing was conducted using a servohydraulics machine (MTS Systems Corp., Eden Prairie, MN) with a 20 Nmm reaction torque cell (Interface, Scottsdale, AZ) and tested to failure at a rate of 2.0 deg/sec. The maximum torque to failure and angle to failure were determined from the force to angular displacement data.
Maximum torque to failure and maximum torsional rigidity are considered extrinsic properties while shear modulus and maximum shear stress are considered intrinsic properties. […] Maximum torsional rigidity is a function of the maximum torque to failure, gauge length (distance of the exposed femur between the embedded proximal and distal end) and angular displacement. Maximum shear stress is a function of the maximum torque to failure, maximum radius within the mid-diaphyseal region and the polar moment of inertia. The polar moment of inertia was calculated by modeling the femur as a hollow ellipse.
In order to compare the biomechanical parameters between different treatment groups, the data was normalized by dividing each fractured femur value by its corresponding intact, contralateral femur value (Figure 2). Normalization was used to minimize biological variability due to differences in age and weight among rats.
Zinc chloride (ZnCl2), Sigma Aldrich, St. Louis, MO, mixed with sterile water at various doses with or without a calcium sulfate carrier, were injected into the intramedullary canal prior to fracture. Doses of ZnCl2 were not based on each animal's body weight, but on a lower theoretically tolerable dose for a 290-gram BB Wistar rat, which would not elicit heavy metal poisoning or behavioral changes. This weight is over 50 grams lower than the average weight of non-diabetic BB Wistar rats at an age of approximately 90 days (the age of investigation in this study).

[5] = ZnCl2 0.1 mg/kg local, normalized to intact femur
[6] = ZnCl2 1.0 mg/kg local, normalized to intact femur
[7] = ZnCl2 3.0 mg/kg local, normalized to intact femur, 3 mg/kg
[8] = ZnCl2 3 mg/kg, four weeks, normalized to intact femur, 3 mg/kg
[9] = ZnCl2 6.0 mg/kg local, normalized to intact femur
[10] = ZnCl2 10.0 mg/kg local, normalized to intact femur

[Cl-].[Cl-].[Zn+2] [ZnCl2, Zinc Chloride]
Radiographic scoring, 4 Weeks Post-Fracture (# of cortices bridged) (femur fractures [1]; ZnCl2 1.0 mg/kg local): 3.0 ± 0.6 (n=3)
Radiographic scoring, 4 Weeks Post-Fracture (# of cortices bridged) (femur fractures [1]; ZnCl2 3.0 mg/kg local): 3.3 ± 0.6^∗ (n=3)
% Bone (femur fractures [2]; 7 Day): 18.92 ± 5.97 ^∗ %
% Cartilage (femur fractures [2]; 7 Day): 4.64 ± 3.41%
% Bone (femur fractures [2]; 10 Day): 21.31 ± 5.40%
% Cartilage (femur fractures [2]; 10 Day): 12.79 ± 3.02%
% Bone (femur fractures [2]; 21 Day): 24.47 ± 3.53%
% Cartilage (femur fractures [2]; 21 Day): 11.57 ± 5.53%
% Weight gain ([3]; 0.1 mg/kg): 15.3±11.5%
Blood Glucose 12 Hours Post-Surgery ([3]; 0.1 mg/kg): 87.0±7.1 ^a mg/dl
% Weight gain ([3]; 1 mg/kg): 11.0±9.4%
Blood Glucose 12 Hours Post-Surgery ([3]; 1 mg/kg): 99.3±3.1 ^b mg/dl
% Weight gain ([3]; 3 mg/kg): 6.9±11.7%
Blood Glucose 12 Hours Post-Surgery ([3]; 3 mg/kg): 105.0±4.4 ^b mg/dl
% Weight gain ([3]; 6 mg/kg): 4.6±2.3%
Blood Glucose 12 Hours Post-Surgery ([3]; 6 mg/kg): 88.0±4.3 ^a mg/dl
% Weight gain ([3]; 10 mg/kg): 4.2±2.0%
Blood Glucose 12 Hours Post-Surgery ([3]; 10 mg/kg): 87. 7±8. 5 ^a mg/dl
Effective Shear Modulus (femur fractures [4]; ZnCl2 0.1 mg/kg local): 1.7×10^3 ± 3.3×10^2 MPa
Effective Shear Stress (femur fractures [4]; ZnCl2 0.1 mg/kg local): 61 ± 14 MPa
Maximum Torque to Failure (femur fractures [4]; ZnCl2 0.1 mg/kg local): 252 ± 13 Nmm
Maximum Torsional Rigidity (femur fractures [4]; ZnCl2 0.1 mg/kg local): 2.1×10^4 ± 4.2×10^3 Nmm^2/rad
Percent Effective Shear Modulus (femur fractures [4]; [5]): 34 ± 4%
Percent Effective Shear Stress (femur fractures [4]; [5]): 33 ± 14%
Percent Maximum Torque to Failure (femur fractures [4]; [5]): 57 ± 12%
Percent maximum torsional rigidity (femur fractures [4]; [5]): 87 ± 14%
Effective Shear Modulus (femur fractures [4]; ZnCl2 1.0 mg/kg local): 9.7×10^2 ± 3.6×10^2 MPa
Effective Shear Stress (femur fractures [4]; ZnCl2 1.0 mg/kg local): 44 ± 15 MPa
Maximum Torque to Failure (femur fractures [4]; ZnCl2 1.0 mg/kg local): 281 ± 86 Nmm
Maximum Torsional Rigidity (femur fractures [4]; ZnCl2 1.0 mg/kg local): 2.2×10^4 ± 2.7×10^3 Nmm^2/rad
Percent Effective Shear Modulus (femur fractures [4]; [6]): 32 ± 15%
Percent Effective Shear Stress (femur fractures [4]; [6]): 18 ± 8%
Percent Maximum Torque to Failure (femur fractures [4]; [6]): 65 ± 29%
Percent maximum torsional rigidity (femur fractures [4]; [6]): 55 ± 14%
effective shear stress, times higher than control (femur fractures [4]; ZnCl2 1.0 mg/kg): 1.6 x
Effective Shear Modulus (femur fractures [4]; ZnCl2 3.0 mg/kg local): 1.3×10^3 ± 6.4×10^2 MPa
Effective Shear Stress (femur fractures [4]; ZnCl2 3.0 mg/kg local): 55 ± 21^∗ MPa
Maximum Torque to Failure (femur fractures [4]; ZnCl2 3.0 mg/kg local): 369 ± 74 Nmm
Maximum Torsional Rigidity (femur fractures [4]; ZnCl2 3.0 mg/kg local): 3.1×10^4 ± 1.1×10^4 Nmm^2/rad
Percent Effective Shear Stress (femur fractures [4]; ZnCl2 3.0 mg/kg local, normalized to intact femur): 27 ± 17%
Percent Effective Shear Modulus (femur fractures [4]; [7]): 39.0% and 36 ± 10^∗ Percent
Percent Maximum Torque to Failure (femur fractures [4]; [7]): 82.0% and 82 ± 25^∗ Percent
Percent maximum torsional rigidity (femur fractures [4]; [7]): 97.0% and 97 ± 55^∗ Percent
effective shear stress, times higher than control (femur fractures [4]; ZnCl2 3.0 mg/kg): 2.2 x
percent effective shear modulus, times higher than control group (femur fractures [4]; [8]): 9.0 x and 8.0 x
percent maximum torque to failure, times higher than control group (femur fractures [4]; [8]): 2.04 x and 2.0 x
percent torsional rigidity, times higher than control group (femur fractures [4]; [8]): 3.85 x and 3.8 x
Effective Shear Modulus (femur fractures [4]; ZnCl2 6.0 mg/kg local): 1.1×10^3 ± 7.5×10^2 MPa
Effective Shear Stress (femur fractures [4]; ZnCl2 6.0 mg/kg local): 32 ± 25^∗ MPa
Maximum Torque to Failure (femur fractures [4]; ZnCl2 6.0 mg/kg local): 276 ± 190 Nmm
Maximum Torsional Rigidity (femur fractures [4]; ZnCl2 6.0 mg/kg local): 2.9×10^4 ± 1.6×10^4 Nmm^2/rad
Percent Effective Shear Modulus (femur fractures [4]; [9]): 18 ± 12%
Percent Effective Shear Stress (femur fractures [4]; [9]): 15 ± 10%
Percent Maximum Torque to Failure (femur fractures [4]; [9]): 38 ± 20%
Percent maximum torsional rigidity (femur fractures [4]; [9]): 62 ± 35%
Percent shear modulus, times greater than untreated saline group (femur fractures [4]; ZnCl2 10.0 mg/kg (high dose), four weeks, normalized to intact femur): 8.8 times
Effective Shear Modulus (femur fractures [4]; ZnCl2 10.0 mg/kg local): 3.0×10^3 ± 1.9×10^3∗ MPa
Effective Shear Stress (femur fractures [4]; ZnCl2 10.0 mg/kg local): 62 ± 30 MPa
Maximum Torque to Failure (femur fractures [4]; ZnCl2 10.0 mg/kg local): 254 ± 36 Nmm
Maximum Torsional Rigidity (femur fractures [4]; ZnCl2 10.0 mg/kg local): 3.6×10^4 ± 2.5×10^4 Nmm^2/rad
Percent Effective Shear Stress (femur fractures [4]; [10]): 27 ±11%
Percent Maximum Torque to Failure (femur fractures [4]; [10]): 41 ± 8%
Percent maximum torsional rigidity (femur fractures [4]; [10]): 73 ± 44%
Percent Effective Shear Modulus (femur fractures [4]; ZnCl2 10.0 mg/kg local, normalized to intact femur, 10 mg/kg): 36.0% and 39 ± 23^∗ Percent
time in which fracture healing resolved (femur fractures [4]; ZnCl2 applied directly to the fracture site, instead of average eight to ten weeks in standard rat femur fracture model): four to five weeks
